Assays:
[1] = Procedure: The volatility was determined by analyzing the loss of material by HLPL at 70° C. after 24 h at atmospheric pressure and the loss is summarized in Table 5. The application rate was 500 g/ha dicamba (free acid), 1000 g/ha potassium glyphosate, 300 g/ha Genamin® T050 (“Ad2”, 300 g/ha Preference® (“Ad3”) and optionally 250, 500 or 1000 g/ha K2CO3. Deionised water (hardness<1° dH) was used to prepare the samples. Dicamba BAPMA refers to the bis(3-aminopropyl)methylamine salt of dicamba.
[2] = test system: Soya (glycine max) Variant Deltapine, genetically engineered to resist glyphosate; format: in vivo; conditions: conclusion from Table 4
Procedure: For the greenhouse tests, maize (cultivar Amadeo) and Chenopodium album was sown or potted in loamy sandy soil to a depth of 1-2 cm. When the plants had reached a growth height of 10 to 25 cm (around 10 to 21 days after sowing), the spray mixtures were applied to the plants in a spraying cabin.
The temperatures in the experimental period, which lasted for 3 to 4 weeks, were between 18-35° C. During this time, the experimental plants received optimum watering, with nutrients being supplied via the water used for watering.
The herbicidal activity was evaluated by awarding scores to the treated plants in comparison to the untreated control plants (Table 1 and 2). The evaluation scale ranges from 0% to 100% activity. 100% activity means the complete death at least of those parts of the plant that are above ground. Conversely, 0% activity means that there were no differences between treated and untreated plants.
The biological evaluation was made as described in Example 6. The tank mixes were applied at a application rate of 375 l/ha (125 or 250 g of glyphosate free acid/ha and 300 g of adjuvant/ha). The adjuvant Ad1 is an aqeuous solution of 200 g/l Genamin® T150 (a tallow fatty amine ethoxylate with 15 EO). The adjuvant Ad2 is Genamin® T050 (a tallow fatty amine ethoxylate with 5 EO).
Soya (glycine max) Variant Deltapine was genetically engineered to resist glyphosate.

| SMILES | Loss of dicamba, Loss (wt %) ([1]; 70° C., 24 h, atmospheric pressure, 500 g/ha dicamba (free acid), deionised water) | pH of tank mix ([1]; deionised water (hardness<1° dH)) | phytotoxity effect on plants of addition of K2CO3 [2] |
| --- | --- | --- | --- |
| CN(CCCN)CCCN.COc1c(Cl)ccc(Cl)c1C(=O)O [Dicamba BAPMA, bis(3-aminopropyl)methylamine salt of dicamba] | <1 wt % | 6.3 | – |
| O=C([O-])[O-].[K+].[K+] [Example K2CO3, K2CO3] | – | – | no phytotoxity effect |

From US20150051078A1, “Glyphosate tank mix adjuvant comprising a base selected from a carbonate and/or a phosphate” (priority 2012, published 2015)
